Reference: patent US6887869B2, “Mikanolide derivatives, their preparation and therapeutic uses” (Societe de Conseils de Recherches et d'Applications …, priority 2001, dated 2005)

Legend:
[1] = system: DNA polymerase of E. Coli (Klenow DNA polymerase enzyme); assay: Incorporation of deoxycytidine 5'-[alpha32P]-triphosphate into a DNA in the presence of DNA polymerase in an acellular system; format: biochemical; conditions: concentration 100 μg/ml; labelled dCTP, 10 minutes at 37°, vs control
Experimental: Incorporation of Deoxycytidine 5′-[alpha^32P]-triphosphate into a DNA in the Presence of DNA Polymerase in an Acellular System
Labelling of the DNA is carried out on a DNA fragment which incorporates nucleotides by way of the activity of the DNA polymerase enzyme. From these nucleotides, the dCTP is labelled with radioactive phosphorus (^32P).
Plasmidal DNA (pc DNA 3, invitrogen, Netherlands) is diluted to a concentration of 2 ng in 45 μl of TE solution (10 mM Tris-HCl, pH 8, 1 mM EDTA) and denatured by heating to 100° C. for 10 minutes before being replaced directly in ice. The denatured DNA is placed in the tube which contains the buffer solution of dATP, dGTP, dTTP, the Klenow DNA polymerase enzyme and the random primers (Rediprime II random prime labelling system, RPN 1633, RPN 1634, Amersham pharmacia biotech). 2 μl of Redivue deoxycytidine 5′-[alpha^32P]-triphosphate (250 μCi specific activity Amersham, Orsay, France) is added to start the reaction. The reaction is carried out in the presence or absence of the compound to be tested for 10 minutes at 37°. […] 10 μL is counted in 5 ml of scintillator (Instage1 plus and scintillation counter Packard, Rungis, France). The results are expressed as a percentage of the inhibition of incorporation of the labelled nucleotide in the sample with respect to the control: 100−[(DPM of the sample treated/control DPM)×100].

HT29 tumor cells = assay: Incorporation of tritiated thymidine into DNA of HT29 cells in exponential growth phase; format: cell-based, human; conditions: 3 hours treatment
Experimental: (§1) DU-145 (human prostate cancer cells), HT29 (cancer of the colon) and Mia-PaCa2 (human pancreatic cancer cells) were acquired from the American Tissue Culture Collection (Rockville, Md., USA).
Incorporation of Thymidine Labelled with Tritium into DNA Cells in Exponential Growth Phase
HT29 cells are seeded in 96-well plates (culturPlate-96, Packard, Rungis, France) (4000 cells per well) with the medium (DME, Gibco BRL, Cergy-Pontoise, France) complemented with 10% of foetal calf serum, Gibco BRL, Cergy-Pontoise, France). On day 3, the medium is removed and replaced with medium containing the tritiated thymidine (5′-thymidine TRK.328, 1 mCi, 0.6 μCi/well, Amersham, Orsay, France) with or without the compound. The treatments are carried out for 3 hours. The medium is then removed and the cells are washed twice with 20 μl of PBS (Gibco BRL, Cergy-Pontoise, France). The lysis solution (SDS 1.25%, EDTA 5 mM) is added for 10 minutes at ambient temperature, then 75 μl of scintillating liquid (microscint 40, Packard, Rungis, France) is added. The plates are read using Topcount (Packard, Rungis, France). These tests are carried out in duplicate and the results are expressed with respect to the incorporation of the labelled nucleotide in the sample treated with the compound over the incorporation of the labelled nucleotide in the control sample (sample DPM/control DPM).

[2] = system: DU-145 (human prostate cancer cells); assay: Measurement of cell proliferation (WST1), DU-145; format: cell-based; conditions: DU-145, 96 hours treatment, read-out: IC50 inhibitory concentration, proliferation of DU-145 cell lines
Experimental: as §1
(§2) Measurement of Cell Proliferation
(§3) The cells placed in 80 μl of Dulbecco's modified Eagle medium (Gibco-BRL, Cergy-Pontoise, France) completed with 10% of foetal calf serum inactivated by heating (Gibco-BRL, Cergy-Pontoise, France), 50000 units/l of penicillin and 50 mg/l streptomycin (Gibco-BRL, Cergy-Pontoise, France), and 2 mM of glutamine (Gibco-BRL, Cergy-Pontoise, France) were seeded on a 96-well plate on day 0. The cells were treated on day 1 for 96 hours with increasing concentrations of each of the compounds to be tested. At the end of the of this period, quantification of the cell proliferation is evaluated by a calorimetric test based on the cleavage of the tetrazolium salt WST1 by mitochondrial dehydrogenases in viable cells leading to the formation of formazan (Boehringer Mannheim, Meylan, France). These tests are carried out in duplicate with 8 determinations per concentration tested. The products are solubilised in dimethylsulphoxide (DMSO) at 10^−2 M and finally used in culture with 0.5% DMSO.

[3] = system: Mia-PaCa2 (human pancreatic cancer cells); assay: Measurement of cell proliferation (WST1), Mia-PaCa2; format: cell-based; conditions: MIA PaCa-2, Mia-Paca2, 96 hours treatment, read-out: IC50 inhibitory concentration, proliferation of Mia-Paca2 cell lines
Experimental: as §1, §2, §3

Row | Structure (SMILES) | % inhibition of incorporation [1] [%] | incorporation of tritiated thymidine (sample dpm/control dpm) (HT29 tumor cells; 25 μg/ml) | incorporation of tritiated thymidine (sample dpm/control dpm) (HT29 tumor cells; 50 μg/ml) | incorporation of tritiated thymidine (sample dpm/control dpm) (HT29 tumor cells; 100 μg/ml) | IC50 [2] [µM] | IC50 [3] [µM]
1 | C[C@H]1C(=O)O[C@H]2C[C@]3(C)O[C@@H]3[C@@H]3O[C@@H]3C3=C[C@@H](OC3=O)[C@@H]21 [Dihydromikanolide, dihydromikanolide, reference compound] | 77 ± 11 | 0.98 | 0.22 | 0.14 | – | –
2 | CC1C(=O)OC2CC3(C)OC3C(O[Si](C)(C)C(C)(C)C)C(N(C)C)C3=CC(OC3=O)C21 (stereo not shown) [Example 16, 11-(tert-butyldimethylsiloxy)-12-dimethylamino-3,8-dimethyl-5,9,15-trioxatetracyclo[11.2.1.0^2,6.0^8,10]hexadec-13(16)-ene-4,14-dione] | 70 ± 8 | 0.71 | 0.58 | 0.52 | ≤ 30 | ≤ 30
